Values joined by “and” are separate entries in the source; they are usually repeats but may differ in a detail not shown here. Equal values may be shown once.
Legend:
[1] = target: T1, Collagenase 3 (Homo sapiens, UniProt P45452); assay: Inhibition of MMP13
[2] = Chemical stability assessed as half life in phosphate buffer saline at pH 7.2; type: physicochemical; details: phosphate buffered saline
[3] = test system: Rattus norvegicus; assay: Toxicity in rat assessed as induction of fibroplasia at 30 mg/kg, bid; type: organism-based; set-up: dose 30 mg/kg; details: in vivo
[4] = Cmax in rat at 800 mg/kg, bid; type: ADME, organism-based; set-up: dose 800 mg/kg; details: in vivo
[5] = test system: Rattus norvegicus; assay: Toxicity in rat assessed as induction of fibroplasia at 100 mg/kg, bid; type: organism-based; set-up: dose 100 mg/kg; details: in vivo
[6] = Volume of distribution at steady state in rat; type: ADME, organism-based; details: in vivo, read-out: Vdss
[7] = target: T1, Collagenase 3; assay: Inhibition of MMP13-mediated bovine nasal cartilage degradation assessed as hydroxyprole release; type: functional, tissue-based
[8] = test system: Rattus norvegicus; assay: Toxicity in rat assessed as induction of fibroplasia at 300 mg/kg, bid; type: organism-based; set-up: dose 300 mg/kg; details: in vivo
[9] = test system: Hamster; assay: Inhibition of human MMP13-induced cartilage damage in hamster at 10 mg/kg, po; type: functional; details: Cricetinae
[10] = Half life in rat; type: ADME, organism-based; details: in vivo
[11] = test system: Rattus norvegicus; assay: Toxicity in rat assessed as induction of fibroplasia at 800 mg/kg, bid; type: organism-based; set-up: dose 800 mg/kg; details: in vivo
[12] = plasma Clearance in rat; type: ADME, organism-based
[13] = Cmax in rat at 300 mg/kg, bid; type: ADME, organism-based; set-up: dose 300 mg/kg; details: in vivo

Row | Compound | IC50 [1] | further results
1 | CCOCCC1(Oc2ccc(Oc3ccc(-c4nc(-c5cccc(F)c5)co4)cc3)cc2)C(=O)NC(=O)NC1=O | 0.35 nM | –
2 | CCOCCC1(Oc2ccc(Oc3ccc(-c4nc(-c5cccc(C#N)c5)co4)cc3)cc2)C(=O)NC(=O)NC1=O | 0.52 nM | –
3 | CCOCCC1(Oc2ccc(Oc3ccc(-c4nc(-c5ccc(C#N)cc5)co4)cc3)cc2)C(=O)NC(=O)NC1=O | 0.43 nM | –
4 | CCOCCC1(Oc2ccc(Oc3ccc(F)cc3)cc2)C(=O)NC(=O)NC1=O | 0.6 nM | –
5 | CCOCCC1(Oc2ccc(Oc3ccc(-c4nc5ccccc5[nH]4)cc3)cc2)C(=O)NC(=O)NC1=O | 0.49 nM | –
6 | O=C1NC(=O)C2(CCCC(=O)N2c2ccc(Oc3ccc(F)cc3)nc2)C(=O)N1 | 11.7 nM | –
7 | O=C1NC(=O)C2(CNC(=O)N2c2ccc(Oc3ccc(F)cc3)nc2)C(=O)N1 | 15.1 nM | –
8 | CCOCCC1(Oc2ccc(Oc3ccc(-c4nc5ccc(Cl)cc5[nH]4)cc3)cc2)C(=O)NC(=O)NC1=O | 0.96 nM | –
9 | O=C1NC(=O)C2(CCCN2c2ccc(Oc3ccc(-c4nc5ccc(Cl)cc5[nH]4)cc3)nc2)C(=O)N1 | 0.1 nM | –
10 | CN1CC2(C(=O)NC(=O)NC2=O)N(c2ccc(Oc3ccc(F)cc3)nc2)C1=O | 12 nM | –
11 | O=C1NC(=O)C2(CCC(=O)N2c2ccc(Oc3ccc(F)cc3)nc2)C(=O)N1 | 3.49 nM | half-life [2]: 91.2 h
12 | O=C1NC(=O)C2(CCS(=O)(=O)N2c2ccc(Oc3ccc(F)cc3)nc2)C(=O)N1 | 138 nM | half-life [2]: 26.4 h
13 | O=C1NC(=O)C2(CCCN2c2ccc(Oc3ccc(-c4nc(-c5ccccc5F)co4)cc3)nc2)C(=O)N1 | 0.16 nM | –
14 | CCOCCC1(Oc2ccc(Oc3ccc(-c4nc5ccc(F)cc5[nH]4)cc3)cc2)C(=O)NC(=O)NC1=O | 0.4 nM | –
15 | O=C1NC(=O)C2(CCCN2c2ccc(Oc3ccc(-c4nc(-c5cccc(F)c5)co4)cc3)nc2)C(=O)N1 | 0.09 nM | –
16 | O=C1NC(=O)C2(CCCN2c2ccc(Oc3ccc(-c4nc5ccc(F)cc5[nH]4)cc3)nc2)C(=O)N1 | 0.08 nM | –
17 | N#Cc1ccc(-c2coc(-c3ccc(Oc4ccc(N5CCCC56C(=O)NC(=O)NC6=O)cn4)cc3)n2)cc1 | 0.05 nM | –
18 | N#Cc1cccc(-c2coc(-c3ccc(Oc4ccc(N5CCCC56C(=O)NC(=O)NC6=O)cn4)cc3)n2)c1 | 0.11 nM | –
19 | CCOCCC1(Oc2ccc(Oc3ccc(F)cc3)nc2)C(=O)NC(=O)NC1=O | 8.9 nM | –
20 | CCOCCC1(Nc2ccc(Oc3ccc(F)cc3)nc2)C(=O)NC(=O)NC1=O | 2.9 nM | –
21 | O=C1NC(=O)C2(CCCN2c2ccc(Oc3ccc(-c4nc(-c5ccc(F)cc5)co4)cc3)nc2)C(=O)N1 | 0.12 nM | Activity [3]: Non-toxic; Cmax [4]: 52 µg/mL; Activity [5]: Non-toxic; Vd [6]: 1.3 L/kg; IC50 [7]: 12 nM; Activity [8]: Toxic; inhibition in vivo at 10 mg/kg [9]: > 80%; half-life [10]: 4.5 h; Activity [11]: Toxic; clearance [12]: 3.9 mL/min/kg; Cmax [13]: 63 µg/mL
22 | O=C1NC(=O)C2(CCCN2c2ccc(Oc3ccc(-c4nc5ccccc5[nH]4)cc3)nc2)C(=O)N1 | 0.11 nM | –
23 | O=C1NC(=O)C2(CCCN2c2ccc(Oc3ccc(F)cc3)nc2)C(=O)N1 | 1.6 nM and 1.57 nM | –
24 | CC1(C)CC2(C(=O)NC(=O)NC2=O)N(c2ccc(Oc3ccc(F)cc3)nc2)C1=O | 7.33 nM | half-life [2]: 67.2 h
25 | O=C1NC(=O)C2(CCCN2c2ccc(Oc3ccc(Br)cc3)nc2)C(=O)N1 | 0.6 nM | half-life [2]: > 24000 h
